Measured values: EP1826201A1, “Substituted phenylpiperidine derivatives as melanocortin-4 receptor modulators” (Santhera Pharmaceuticals (Schweiz) AG, priority 2006, dated 2007)

Experiments:
hMC-4R [1] = target: T1, hMC-4R (Homo sapiens, UniProt P32245); test: Membrane binding assay (fluorescence polarization, competition with fluorescence labeled NDP-alpha-MSH); conditions: HEK293 cell membrane preparations expressing human melanocortin receptors; 5 h at room temperature
T1 construct: expressed in transfected cells; host or cells: HEK293
T1 sequence (P32245 whole entry): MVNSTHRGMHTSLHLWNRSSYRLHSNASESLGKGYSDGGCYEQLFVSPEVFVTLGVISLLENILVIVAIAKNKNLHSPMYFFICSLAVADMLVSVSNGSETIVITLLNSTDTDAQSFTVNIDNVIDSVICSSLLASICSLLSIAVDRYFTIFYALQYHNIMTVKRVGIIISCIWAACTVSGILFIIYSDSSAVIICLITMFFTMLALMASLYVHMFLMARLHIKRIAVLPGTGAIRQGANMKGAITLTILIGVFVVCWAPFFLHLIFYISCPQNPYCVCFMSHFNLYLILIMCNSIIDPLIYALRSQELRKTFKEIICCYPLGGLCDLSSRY

hMC-4R [2] = target: T1, hMC-4R; test: Functional assay (membrane based cAMP fluorescence polarization assay, agonistic activity); type: biochemical; conditions: for Emax / % activation functional assay: cAMP produced compared to stimulation with NDP-alpha-MSH; for Emax: read-out: % activation functional assay; for EC50: membrane preparations from HEK293 cells expressing the human melanocortin receptors, cAMP production
Method: Agonistic activity of human melanocortin receptors is determined in a homogeneous membrane based assay.
Membrane preparations from HEK293 cells expressing the human melanocortin receptors are added. After a short preincubation period, an appropriate amount of ATP, GTP and the cAMP antibody is added and the plate is further incubated before the fluorescence labeled cAMP conjugate is dispensed. The plate is incubated for 2 h at 4°C before it is read on a fluorescence polarization microplate reader. The amount of cAMP produced as a response to a test compound is compared to the production of cAMP resulting from stimulation with NDP-alpha-MSH.

| SMILES | IC50 (hMC-4R [1]) [µM] | Emax (hMC-4R [2]) [%] | EC50 (hMC-4R [2]) [µM] | % activation functional assay (hMC-4R [2]) |
| --- | --- | --- | --- | --- |
| NC(Cc1ccc(Cl)cc1)C(=O)N1CCC(c2cc(F)c(F)cc2OCCN2CCCC2)CC1 (centres unmarked) [Example 111] | 0.31 | 75 | 0.17 | – |
| NC(Cc1ccc(Cl)cc1)C(=O)N1CCC(c2ccc(Cl)cc2OCCCN2CCCCC2)CC1 (centres unmarked) [Example 110] | 0.19 | 73 | 0.28 | – |
| NC(Cc1ccc(Cl)cc1)C(=O)N1CCC(c2ccccc2OCCN2CCCC2)CC1 (centres unmarked) [Example 101] | 0.47 | 78 | 1.6 | – |
| NC(Cc1ccc(Cl)cc1)C(=O)N1CCC(c2cc(F)c(F)cc2OCCN2CCCCC2)CC1 (centres unmarked) [Example 112] | 0.26 | 73 | 0.11 | – |
| NC(Cc1ccc(Cl)cc1)C(=O)N1CCC(c2ccc(F)cc2CCCN2CCCC2)CC1 (centres unmarked) [Example 114] | 0.29 | 89 | 0.64 | – |
| NC(Cc1ccc(Cl)cc1)C(=O)N1CCC(c2cc(F)ccc2OCCN2CCCC2)CC1 (centres unmarked) [Example 105] | 0.26 | 90 | 0.57 | – |
| NC(Cc1ccc(Cl)cc1)C(=O)N1CCC(c2ccccc2CCCN2CCCC2)CC1 (centres unmarked) [Example 113] | 0.79 | 78 | 1.1 | – |

Compounds with a lower IC50 (hMC-4R [1]), results first:

| IC50 (hMC-4R [1]) [µM] | Emax (hMC-4R [2]) [%] | EC50 (hMC-4R [2]) [µM] | % activation functional assay (hMC-4R [2]) | SMILES |
| --- | --- | --- | --- | --- |
| 0.064 | 22 | – | – | NC(Cc1ccc(Cl)cc1Cl)C(=O)N1CCC(c2ccc(F)cc2OCCN2CCCC2)CC1 (centres unmarked) [Example 2] |
| 0.15 | 87 | 0.23 | – | NC(Cc1ccc(Cl)cc1)C(=O)N1CCC(c2cc(Cl)ccc2OCCN2CCCC2)CC1 (centres unmarked) [Example 106] |
| 0.057 | 29 | – | – | NC(Cc1ccc(Cl)cc1Cl)C(=O)N1CCC(c2cc(F)c(F)cc2OCCN2CCCC2)CC1 (centres unmarked) [Example 7] |
| 0.13 | – | – | no activation | NC(Cc1ccc(Cl)cc1Cl)C(=O)N1CCC(c2ccccc2OCCN2CCCC2)CC1 (centres unmarked) [Example 1] |
| 0.028 | – | – | no activation | NC(Cc1ccc(Cl)cc1Cl)C(=O)N1CCC(c2ccc(Cl)cc2OCCN2CCCC2)CC1 (centres unmarked) [Example 3] |
